The test system of one experiment is MDA-MB-468 xenograft. As to the kind of experiment: MDA-MB-468 xenograft model. As to conditions: 10 mg/kg PO once daily, CB-17 SCID mice, compared to vehicle. Type of experiment: in vivo, mouse. Here is the method:
MDA-MB-468 (ATCC #HTB-102) breast adenocarcinoma cells were obtained from ATCC. These cells were grown in high glucose DMEM medium supplemented with 10% fetal bovine serum, 1% penicillin and streptomycin, and 2 mM L-Glutamine. Cells were sub-cultured by dilution at a ratio of 1:4. MDA-MB-468 cells were harvested by trypsinization and counted using a hemocytometer. Cells were resuspended in PBS at a concentration of 4×10^8 cells per mL. Cells were placed on ice and mixed with an equal volume of Matrigel (BD Biosciences CB-40234). Twenty-two (22) CB-17 SCID mice were inoculated sub-cutaneously in the left flank with 4×10^7 MDA-MB-468 cells. Treatment was initiated when the tumors reached a mean volume of ˜100 mm^3. […] Animals' weights and condition were recorded daily, and tumors were measured on Mondays, Wednesdays, and Fridays.

For a further experiment, the system named is 3T3 cells. In words: MTT cell proliferation assay. It is filed as cell-based. As to conditions: Mus musculus, NIH3T3, approximately 64-72 hours. The method, boiled down: (§1)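 Cells seeded at 5,000-10,000 per well attached overnight, then received eight compound concentrations from 1 nM to 30 μM. Viability was measured by MTT (about 4 h) with OD read at 490 nm. Percent inhibition versus negative control, mostly from duplicates, was reported as mean±SE.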

For another experiment, the system named is MM1S cells. As to the kind of experiment: MTT cell proliferation assay. It is filed as cell-based. Particulars: Homo sapiens, MM1.S, approximately 64-72 hours. In short, it runs like this: as §1
In another experiment the test system is Z138 cells. In words: MTT cell proliferation assay. It is filed as cell-based. Particulars: Homo sapiens, Z-138, approximately 64-72 hours. In short, it runs like this: as §1
The target in a further experiment is T1, CRM1 (Homo sapiens, UniProt O14980).
T1 construct: endogenous in cells; host or cells: U2OS cells stably expressing Rev-GFP
In words: Inhibition of nuclear export, RevGFP assay in U2OS-RevGFP cells. It is filed as cell-based. As to conditions: approximately 1 hour incubation. The protocol:
The inhibition of CRM1 mediated nuclear export by compounds of the invention was determined in a RevGFP assay. Rev is a protein from human immunodeficiency virus type 1 (HIV-1) and contains a nuclear export signal (NES) in its C-terminal domain and a nuclear localization signal (NLS) in its N-terminal domain. Nuclear export of Rev protein is dependent on the classical NES/CRM1 pathway (Neville et al, 1997, Kau et al, 2003).
In this assay, U2OS-RevGFP cells were seeded onto clear-bottom, black, 384-well plates the day before the experiment. Compounds were serially diluted 1:2 starting from 40 μM in a separate 384-well plate in DMEM, and then transferred onto cells. Cells were incubated with compound for approximately 1 hour before fixation with 3.7% formaldehyde and nuclei staining with Hoechst 33258. The amount of GFP in cell nuclei was measured and compound IC50s were determined (Kau et al, 2003).

T1 sequence (O14980 whole entry): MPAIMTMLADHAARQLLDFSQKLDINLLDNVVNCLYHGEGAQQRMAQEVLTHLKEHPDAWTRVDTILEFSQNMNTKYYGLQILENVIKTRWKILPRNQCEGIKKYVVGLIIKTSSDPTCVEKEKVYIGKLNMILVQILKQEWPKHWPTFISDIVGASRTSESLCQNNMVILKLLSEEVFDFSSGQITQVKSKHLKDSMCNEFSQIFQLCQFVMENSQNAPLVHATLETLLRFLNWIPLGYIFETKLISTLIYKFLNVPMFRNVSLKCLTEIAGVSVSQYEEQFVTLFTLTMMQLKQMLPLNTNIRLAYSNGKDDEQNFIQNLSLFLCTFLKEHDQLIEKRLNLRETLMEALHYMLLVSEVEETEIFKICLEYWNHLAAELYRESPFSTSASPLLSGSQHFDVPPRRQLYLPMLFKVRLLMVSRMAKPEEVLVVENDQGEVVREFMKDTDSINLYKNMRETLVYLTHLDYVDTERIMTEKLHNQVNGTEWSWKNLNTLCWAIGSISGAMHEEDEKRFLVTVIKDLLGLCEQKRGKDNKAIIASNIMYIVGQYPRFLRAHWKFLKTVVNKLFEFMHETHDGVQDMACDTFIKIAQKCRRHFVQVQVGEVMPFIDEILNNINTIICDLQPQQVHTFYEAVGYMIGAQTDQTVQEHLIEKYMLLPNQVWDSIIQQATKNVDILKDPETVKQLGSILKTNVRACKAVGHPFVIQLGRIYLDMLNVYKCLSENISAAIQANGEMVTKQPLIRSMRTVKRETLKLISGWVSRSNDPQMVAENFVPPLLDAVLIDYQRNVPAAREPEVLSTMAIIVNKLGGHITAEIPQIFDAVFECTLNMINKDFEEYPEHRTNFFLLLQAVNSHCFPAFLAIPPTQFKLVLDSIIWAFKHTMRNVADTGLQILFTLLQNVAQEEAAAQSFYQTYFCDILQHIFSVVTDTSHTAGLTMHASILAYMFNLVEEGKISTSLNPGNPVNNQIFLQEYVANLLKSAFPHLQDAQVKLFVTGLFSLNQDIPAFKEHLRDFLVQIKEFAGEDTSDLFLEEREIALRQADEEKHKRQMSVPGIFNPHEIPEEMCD

For `NC(=O)/C(=C/n1cnc(-c2cc(C(F)(F)F)cc(C(F)(F)F)c2)n1)c1cnc2ccccc2c1` [Compound 149, (E)-3-(3-(3,5-bis(trifluoromethyl)phenyl)-1H-1,2,4-triazol-1-yl)-2-(quinolin-3-yl)acrylamide], the mean tumor volume entry in the experiment on MDA-MB-468 xenograft was “mean tumor volume was reduced”. The concentration for half-maximal inhibition (IC50) was more than 30000 nM in the experiment with 3T3 cells, less than 100 nM in the experiment with MM1S cells, less than 100 nM in the experiment with Z138 cells and less than 100 nM against CRM1.

Source of the values: patent publication US11945794B2, “Nuclear transport modulators and uses thereof” (Karyopharm Therapeutics Inc., priority 2013, dated 2024).
